For one data set, the system named is SA digested sample. Briefly: Enzymatic treatment of digested sample, bacterial bodies in leukocytes by acridine orange staining. Further details: key to enzymatic treatment determination: The determination was made as adequate when no bacterial body was identified in the leukocytes by the enzymatic treatment. As to conditions: for enzymatic treatment determination: SA digested sample, once, twice, thrice. In kind it is cell-based, Staphylococcus aureus. The protocol:
(§1) Using the slide glass having each digested sample smeared thereon, the enzymatic pretreatment was performed according to the process described in Example 3. Next, the slide glass after completing the enzymatic pretreatment was placed in a humid box, and the reaction was allowed by dropping 1 ml of each enzyme solution prepared to give each titer on the smeared site of the specimen. Thereafter, the slide glass was immersed in PBS containing 0.2 mol/l hydrochloric acid, and in 70% ethanol respectively, for 10 minutes, and air dried. After immersing this slide glass in PBS containing 70 mmol/l sodium hydroxide for 3 minutes, and in 70% ethanol for 10 minutes, it was air dried and stained with 1% acridine orange staining solution. Then, evaluation was made with a fluorescence microscope (×1,000). For Staphylococcus aureus and Staphylococcus epidermidis, examination of the optimal titer was conducted with lysostafin. […] The determination was made as adequate when no bacterial body was identified in the leukocytes by the enzymatic treatment.
(§2) Using a slide glass including each digested sample smeared thereon, examination was conducted according to the process described in example 17 (2). Time period of the enzymatic treatment in this test was 30 minutes, and the temperature for examination was 4° C., 25° C., 37° C., 42° C., and 60° C.
(§3) Using the slide glass including each digested sample smeared thereon, examination was conducted according to the process described in example 17 (2). […] Determination was conducted according to the process described in example 17 (2). As a consequence, for all of Staphylococcus aureus, Staphylococcus epidermidis and Enterococcus faecalis digested samples, no bacterial body was found in the leukocytes with the time period of the enzymatic treatment of 20 minutes or longer (inadequate at 0 minute and 10 minutes). Therefore, the optimal time period of the enzymatic treatment is at least 15 minutes or longer, preferably 20 minutes or longer, and still preferably 30 minutes to 60 minutes.

The subject of a further data set is SE digested sample. The data set is described as above. In kind it is cell-based, Staphylococcus epidermidis. Further details: key to enzymatic treatment determination: The determination was made as adequate when no bacterial body was identified in the leukocytes by the enzymatic treatment. Conditions: for enzymatic treatment determination: SE digested sample, once, twice, thrice. The protocol: as §1, §2, §3

Data set [1] relates to Staphylococcus epidermidis. Description: Lysis evaluated by decrease in turbidity at 600 nm. In kind it is cell-based. Conditions: for Decrease in turbidity of bacteria: lysostafin 50 unit/ml. The text has this:
(§4) Conditions for the enzyme to lyse Staphylococcus aureus (ATCC 12600), Staphylococcus epidermidis (ATCC 14990), Pseudomonas aeruginosa (ATCC 10145), Enterococcus faecalis (ATCC 19433) and Escherichia coli (ATCC 11775) were studied. For Staphylococcus aureus and Staphylococcus epidermidis, lysostafin was used as the lytic enzyme (Bur. J. Biochem., 38, 293-300, 1973). […] Further, for Pseudomonas aeruginosa and Escherichia coli, PBS containing 70 mmol/l sodium hydroxide was used. Each type of these bacteria was inoculated in 5 ml of BHI (Brain Heart Infusion) liquid medium (manufactured by DIFCO), and cultured at 37° C. for 8 hours or longer. Thus cultured bacterial liquid was collected by centrifugation at 4° C. for 10 minutes at 2,000×g. The collected bacteria were suspended in PBS to give a sample.
Lysis was evaluated by decrease in turbidity of the bacterial liquid at the absorbance of 600 nm using a microplate reader. Consequently, Staphylococcus aureus and Staphylococcus epidermidis were lysed by lysostafin. In respect of Pseudomonas aeruginosa and Escherichia coli, no enzymatic treatment was required because lysis was conducted with PBS containing 70 mmol/l sodium hydroxide. […] Moreover, when the bacterium incorporated upon phagocytotic action is for example, Pseudomonas aeruginosa, Escherichia coli or the like, bacterial cell wall is lysed during the alkaline treatment to result in the state in which the gene is exposed. Therefore, it is not necessary to conduct this enzymatic treatment. Each enzyme for the pretreatment which is used in lysis of the foreign microorganism according to the present invention is effective not only for the aforementioned bacterial strain, but also for other bacterial strain that includes other genus staphylococcus, genus streptococcus, genus bacillus, genus micrococcus and the like. […] The results are illustrated in FIG. 3, specifically, in regard to: (a) Staphylococcus aureus and Staphylococcus epidermidis, (b) Pseudomonas aeruginosa and Escherichia coli, and (c) Enterococcus faecalis.
Enterococcus faecalis was inoculated in 50 ml of the aforementioned BHI liquid medium, and cultured at 37° C. for 8 hours or longer. This culture liquid was centrifuged at 4° C. for 10 minutes at 2,000×g to collect the bacteria, followed by subjecting to a heat treatment in an autoclave (120° C., for 10 minutes) after suspending in PBS. Next, the suspension was centrifuged at 4° C. for 10 minutes at 2,000×g, and the supernatant was discarded. Precipitates were suspended in 1 ml of PBS, and thereafter, subjected to freeze-drying. This freeze-dried sample was suspended in 5 mmol/l Tris-hydrochloric acid (pH 6.0), 2 mmol/l magnesium chloride containing 0 to 10% DMSO to give the samples for N-acetylmuramidase. Further, Micrococcus luteus (JCM1464) was inoculated in 5 ml of BHI liquid medium (supra), and cultured at 37° C. for 8 hours or longer. The cultured bacterial liquid was centrifuged at 4° C. for 10 minutes at 2,000×g to collect the bacteria. After discarding the supernatant, and suspending and washing the bacterial pellet with 5 ml of PBS, centrifugation was conducted once again at 4° C. for 10 minutes at 2,000×g to collect the bacteria. […] Enzymatic activity was evaluated on the basis of the decrease in turbidity of the sample at the absorbance of 600 nm using a microplate reader. […] Additionally, no decrease in enzymatic activity was found with DMSO at the concentration of 2% or less. […] The results are show in FIG. 4(a) to (c) and Table 3 below.

In the next data set the test system is Staphylococcus aureus. Briefly: Lysis evaluated by decrease in turbidity at 600 nm. In kind it is cell-based. Conditions: FIG. 3(a).
Source text: as §4, with “sample. Lysis was evaluated by decrease in turbidity of the bacterial liquid at the absorbance of 600 nm using a microplate reader. Consequently, Staphylococcus aureus and Staphylococcus epidermidis were lysed by lysostafin. In respect of Pseudomonas aeruginosa and Escherichia coli, no enzymatic treatment was required because lysis was conducted with PBS containing 70 mmol/l sodium hydroxide. […]” for “sample.”

With “Lysostafin: lytic enzyme used for Staphylococcus aureus and Staphylococcus epidermidis”, the enzymatic treatment determination result in the data set with SA digested sample (lysostafin titer 0.1 U/mL) is reported as “Inadequate”; with SA digested sample (lysostafin titer 1 U/mL) it was “adequate”; with SA digested sample (lysostafin titer 10 U/mL), “adequate”; with SA digested sample (lysostafin titer 100 U/mL), “adequate”; with SA digested sample (lysostafin titer 1,000 U/mL), “adequate”; in the data set on SE digested sample (lysostafin titer 0.1 U/mL), “inadequate”. For the same substance, the enzymatic treatment determination result was “inadequate” with SE digested sample (lysostafin titer 1 U/mL), “adequate” with SE digested sample (lysostafin titer 10 U/mL), “adequate” in the data set on SE digested sample (lysostafin titer 100 U/mL) and “adequate” with SE digested sample (lysostafin titer 1,000 U/mL). The “titer at which sufficient effects were exerted” value in the data set on SA digested sample (lysis of Staphylococcus aureus) was 1 unit/ml. Further, the “titer necessary for lysis” value in the data set with SE digested sample (lysis of Staphylococcus epidermidis) is on record as at least 10 unit/ml. The lysis entry (in data set [1] (FIG. 3(a)); with Staphylococcus aureus) was “lysed” throughout. The “Decrease in turbidity of bacteria” value in data set [1] (added DMSO 0 % (control)) was determined as 0.168 ± 0.017 O.D./10 minutes; in data set [1] (added DMSO 0.1 %), 0.164 ± 0.009 O.D./10 minutes; in data set [1] (added DMSO 1 %), 0.160 ± 0.008 O.D./10 minutes; in data set [1] (added DMSO 2 %) it was 0.145 ± 0.009 O.D./10 minutes; in data set [1] (added DMSO 5 %) it was 0.124 ± 0.006 O.D./10 minutes; in data set [1] (added DMSO 10 %) it was 0.094 ± 0.006 O.D./10 minutes.

The values are drawn from patent US20070059687A1, “Process for evaluating phagocytotic function and use thereof” (priority 2001, published 2007).
